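Briefly, cells in 96-well plates were exposed to five compound concentrations for 48 h, and endpoints were estimated by linear interpolation. Abbreviation: GI50, concentration required for 50% inhibition of growth.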 Activity calls are given as the source filed them. No stated cut-off is given here; in the data, active = GI50 up to about 1.1 µM and inactive = higher.
Experiments:
Assay in all cases: inhibition of tumour cell growth, NCI panel, 48 h
[1] = system: NCI-H226
[2] = system: Malme-3M
[3] = system: SK-MEL-5
[4] = system: DU-145
[5] = system: SN12C
[6] = system: SF-295
[7] = system: OVCAR-3
[8] = system: SNB-19
[9] = system: SK-MEL-28
[10] = system: OVCAR-4
[11] = system: MOLT-4
[12] = system: HCT-15
[13] = system: HOP-92
[14] = system: RXF 393
[15] = system: T47D
[16] = system: UO-31
[17] = system: COLO 205
[18] = system: Hs-578T
[19] = system: SF-268

SMILES | GI50 [1] | GI50 [2] | GI50 [3] | GI50 [4] | GI50 [5] | GI50 [6] | GI50 [7] | GI50 [8] | GI50 [9] | GI50 [10] | GI50 [11] | GI50 [12] | GI50 [13] | GI50 [14] | GI50 [15] | GI50 [16] | GI50 [17] | GI50 [18] | GI50 [19]
O=C1/C(=C\c2cccc(Oc3ccccc3)c2)S(=O)(=O)C(c2ccccc2)N1c1ccc(Cl)cc1 (stereo not given) | 43.1 µM (inactive) | 18.2 µM (inactive) | 13.6 µM (inactive) | 19.1 µM (inactive) | 15.6 µM (inactive) | 5.28 µM (inactive) | 14.4 µM (inactive) | 25.1 µM (inactive) | 17.8 µM (inactive) | 13.1 µM (inactive) | 4.59 µM (inactive) | 13.7 µM | 14 µM (inactive) | 14.7 µM (inactive) | 5.55 µM (inactive) | 13.7 µM (inactive) | 14.3 µM (inactive) |  | 
Cc1cc(-c2ccc(C(=O)O)[nH]2)on1 |  | 38.2 µM (inactive) | 16.1 µM (inactive) | 62.4 µM (inactive) |  | 47.3 µM (inactive) | 32.4 µM (inactive) | 61.4 µM (inactive) | > 100 µM (inactive) | > 100 µM (inactive) | > 100 µM (inactive) | 20.2 µM | 66.7 µM (inactive) | 74.8 µM (inactive) |  | 55.6 µM (inactive) | 22.3 µM (inactive) | 49.2 µM (inactive) | > 100 µM (inactive)
COc1ccc(C2=CC(c3ccccc3)n3nnnc3N2)cc1 (stereo not given) | > 100 µM (inactive) |  | > 100 µM (inactive) | > 100 µM (inactive) | > 100 µM (inactive) | 52.2 µM (inactive) | > 100 µM (inactive) | > 100 µM (inactive) |  |  | > 100 µM (inactive) | > 100 µM |  | > 100 µM (inactive) | 56.9 µM (inactive) | > 100 µM (inactive) | > 100 µM (inactive) | 76.9 µM (inactive) | 74 µM (inactive)
CCOC(=O)C1CC(O)C(=O)N1C (stereo not given) | > 100 µM (inactive) |  | > 100 µM (inactive) | > 100 µM (inactive) | > 100 µM (inactive) | > 100 µM (inactive) | > 100 µM (inactive) | > 100 µM (inactive) | > 100 µM (inactive) | > 100 µM (inactive) | > 100 µM (inactive) | > 100 µM | > 100 µM (inactive) | > 100 µM (inactive) | > 100 µM (inactive) | > 100 µM (inactive) | > 100 µM (inactive) |  | 
COc1ccc(C2=NNC(c3cc4cc(Br)ccc4nc3Cl)C2)cc1 (stereo not given) | 0.0107 µM (active) |  |  | 11.7 µM (inactive) | 7.66 µM (inactive) |  | 18.2 µM (inactive) |  | 15.5 µM (inactive) | 15.3 µM (inactive) | 3.82 µM (inactive) |  | > 25 µM (inactive) |  | 0.0887 µM (active) | 13.1 µM (inactive) | 11.7 µM (inactive) | 0.0129 µM (active) | 
CC(=O)CCC[C@H](C)[C@@H](O)[C@@H]1O[C@H]([C@@]2(C)CCC(=O)O2)C[C@H]1C(=O)O | > 100 µM (inactive) |  | > 100 µM (inactive) | > 100 µM (inactive) | > 100 µM (inactive) | > 100 µM (inactive) | > 100 µM (inactive) | > 100 µM (inactive) | > 100 µM (inactive) | > 100 µM (inactive) | > 100 µM (inactive) | > 100 µM |  | > 100 µM (inactive) | > 100 µM (inactive) | > 100 µM (inactive) | > 100 µM (inactive) | > 100 µM (inactive) | > 100 µM (inactive)
CC12CCC(Br)C(C)(C)C1CC=C1C(=O)OCC1O2 (stereo not given) | 10.1 µM (inactive) |  | 15.1 µM (inactive) | 12 µM (inactive) | 18.5 µM (inactive) | 15.8 µM (inactive) | 16.9 µM (inactive) | 18.2 µM (inactive) | 14.8 µM (inactive) | 16 µM (inactive) | 7.05 µM (inactive) | 12.1 µM | 11.9 µM (inactive) | 11.1 µM (inactive) | 15.4 µM (inactive) | 8.13 µM (inactive) | 18.2 µM (inactive) | 10.9 µM (inactive) | 14.1 µM (inactive)
COC(=O)C1=C(C)N(NC(=O)c2ccccc2)C2(O)CCCC(=O)C12C (stereo not given) | 4.37 µM (inactive) | > 100 µM (inactive) | > 100 µM (inactive) |  | > 100 µM (inactive) | > 100 µM (inactive) | > 100 µM (inactive) | > 100 µM (inactive) | > 100 µM (inactive) | > 100 µM (inactive) |  | > 100 µM | > 100 µM (inactive) | > 100 µM (inactive) |  | > 100 µM (inactive) | > 100 µM (inactive) |  | 
Nc1ccc(Oc2ccc(C3(c4ccc(Oc5ccc(N)cc5)cc4)C4CC5C6CC7CC5C3C(C7)C6C4)cc2)cc1 | > 55.8 µM (inactive) | > 78.3 µM (inactive) | 52.6 µM (inactive) | 9.04 µM (inactive) | 12.1 µM (inactive) | 54.8 µM (inactive) | 2.01 µM (inactive) | 37.4 µM (inactive) | > 100 µM (inactive) | 18.8 µM (inactive) | 6.08 µM (inactive) | 20.1 µM | 0.668 µM (active) | 5.4 µM (inactive) |  | 5.24 µM (inactive) | 42.4 µM (inactive) | 62.5 µM (inactive) | > 53.2 µM (inactive)
O=C(Nc1c(Cl)cc([N+](=O)[O-])cc1Cl)C(=O)C1C(=O)NC(=S)NC1=O | > 100 µM (inactive) | > 100 µM (inactive) | > 100 µM (inactive) |  | > 100 µM (inactive) | > 100 µM (inactive) | > 100 µM (inactive) | > 100 µM (inactive) | > 100 µM (inactive) | > 100 µM (inactive) | > 10 µM (inactive) | > 100 µM | > 100 µM (inactive) | > 100 µM (inactive) | > 100 µM (inactive) | > 100 µM (inactive) |  | > 100 µM (inactive) | > 100 µM (inactive)
O=C(Nc1nc(C23CC4CC(CC(C4)C2)C3)cs1)c1cc2ccc(O)cc2oc1=O | 18 µM (inactive) | 12 µM (inactive) | 13.7 µM (inactive) | 18.3 µM (inactive) | 11.2 µM (inactive) | 16.5 µM (inactive) | 13.8 µM (inactive) | 18.4 µM (inactive) | 15.1 µM (inactive) | 8.26 µM (inactive) | 5.9 µM (inactive) | 4.46 µM | 3.7 µM (inactive) | 16.4 µM (inactive) |  | 7.36 µM (inactive) | 5.36 µM (inactive) | 14.5 µM (inactive) | 16.9 µM (inactive)
CCCCCCCCCCCCCCCCC1=CC(=O)C=C(OC)C1=O | > 100 µM (inactive) | > 100 µM (inactive) | > 100 µM (inactive) | > 100 µM (inactive) | 44 µM (inactive) | > 100 µM (inactive) | > 100 µM (inactive) | 56.4 µM (inactive) | > 100 µM (inactive) | > 100 µM (inactive) | > 100 µM (inactive) | 66.8 µM | 56.8 µM (inactive) | 37 µM (inactive) |  | > 100 µM (inactive) | 55.6 µM (inactive) | 37.6 µM (inactive) | > 100 µM (inactive)
COc1nc2[nH]ccc2c(=O)n1C |  | > 100 µM (inactive) | > 100 µM (inactive) |  | > 100 µM (inactive) | > 100 µM (inactive) |  | > 100 µM (inactive) | > 100 µM (inactive) | 20.5 µM (inactive) | > 100 µM (inactive) | > 100 µM | > 100 µM (inactive) | > 100 µM (inactive) |  |  | > 100 µM (inactive) |  | > 100 µM (inactive)
O=c1[nH]c2ccccc2c(=O)n1/N=C\c1ccccc1O | > 100 µM (inactive) |  | 88.3 µM (inactive) | > 100 µM (inactive) | > 100 µM (inactive) | > 100 µM (inactive) | > 100 µM (inactive) | > 100 µM (inactive) | > 100 µM (inactive) |  | > 100 µM (inactive) | > 100 µM | 67 µM (inactive) |  | > 100 µM (inactive) | > 100 µM (inactive) | > 100 µM (inactive) | 32.3 µM (inactive) | 58.6 µM (inactive)
Cc1c(C(=O)NNc2ccccc2)n2c(S)nnc2c2ccccc12 | > 100 µM (inactive) |  | > 100 µM (inactive) | > 100 µM (inactive) | > 100 µM (inactive) | 54.6 µM (inactive) | > 100 µM (inactive) | > 100 µM (inactive) | 86.7 µM (inactive) | > 100 µM (inactive) | 83.2 µM (inactive) | > 100 µM | > 100 µM (inactive) | 82.2 µM (inactive) | 40.5 µM (inactive) | 73.1 µM (inactive) | > 100 µM (inactive) | > 100 µM (inactive) | > 100 µM (inactive)
NC(CCCCP(=O)(O)O)C(=O)O (stereo not given) |  |  | > 100 µM (inactive) | > 100 µM (inactive) | > 100 µM (inactive) | > 100 µM (inactive) | > 100 µM (inactive) | > 100 µM (inactive) | > 100 µM (inactive) | > 100 µM (inactive) | > 100 µM (inactive) | > 100 µM | > 100 µM (inactive) | > 100 µM (inactive) | > 100 µM (inactive) | > 100 µM (inactive) | > 100 µM (inactive) | > 100 µM (inactive) | > 100 µM (inactive)
CC1(C)CCC2=C(O1)c1ccccc1/C(=N/c1ccc([N+](=O)[O-])cc1)C2=O | 12.4 µM (inactive) | 16 µM (inactive) | 16.7 µM (inactive) |  |  |  | 12.3 µM (inactive) | 18.5 µM (inactive) | 16.3 µM (inactive) | 15.1 µM (inactive) | 13.8 µM (inactive) | 31 µM | 39.1 µM (inactive) | 16.5 µM (inactive) | 11.8 µM (inactive) | 10.6 µM (inactive) |  | 29 µM (inactive) | 29.7 µM (inactive)
